According to the supplement of paper PMC10307832:

Experiments:
Assay in all cases: relative viability (nuclei count vs DMSO), 5 days (fraction); higher = more cells survive
[1] = tested on: NCI-H520
Procedure, shortened: (§1)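 Medians of duplicate plates are given as relative viability. That measure is the nuclei count in treated wells divided by the count in vehicle wells. Counts were taken on 4× images of lung cancer cell lines in 1536-well plates, 5 days after pin-tool dosing the day after seeding with one drug alone or a fixed anchor-drug dose plus five library-drug doses (not always all listed) in √10 steps.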

[2] = tested on: NCI-H838
Procedure, shortened: as §1

[3] = tested on: IA-LM
Procedure, shortened: as §1

[4] = tested on: Calu-6
Procedure, shortened: as §1

[5] = tested on: A549
Procedure, shortened: as §1

[6] = tested on: NCI-H1299
Procedure, shortened: as §1

[7] = tested on: RERF-LC-KJ
Procedure, shortened: as §1

[8] = tested on: NCI-H650
Procedure, shortened: as §1

[9] = tested on: NCI-H1651
Procedure, shortened: as §1

[10] = tested on: EBC-1
Procedure, shortened: as §1

[11] = tested on: NCI-H1944
Procedure, shortened: as §1

[12] = tested on: NCI-H1703
Procedure, shortened: as §1

## CCN(CC)CCCCNc1ncc2cc(-c3cc(OC)cc(OC)c3)c(NC(=O)NC(C)(C)C)nc2n1 + C[C@]1(O)C[C@@H](c2nc(-c3ccc4ccc(-c5ccccc5)nc4c3)c3c(N)nccn32)C1 [Linsitinib] (partner 1 µM)
[1]; first compound 0.01 µM
  relative viability: 0.998
[1]; first compound 0.03162 µM
  relative viability: 1.02
[1]; first compound 0.1 µM
  relative viability: 0.948
[1]; first compound 0.3162 µM
  relative viability: 0.912
[1]; first compound 1 µM
  relative viability: 0.332
[2]; first compound 0.01 µM
  relative viability: 1.13
[2]; first compound 0.03162 µM
  relative viability: 1
[2]; first compound 0.1 µM
  relative viability: 1.05
[2]; first compound 0.3162 µM
  relative viability: 1.01
[2]; first compound 1 µM
  relative viability: 0.603
[3]; first compound 0.01 µM
  relative viability: 0.757
[3]; first compound 0.03162 µM
  relative viability: 0.748
[3]; first compound 0.1 µM
  relative viability: 0.621
[3]; first compound 0.3162 µM
  relative viability: 0.78
[3]; first compound 1 µM
  relative viability: 0.506
[4]; first compound 0.03162 µM
  relative viability: 0.946
[4]; first compound 0.1 µM
  relative viability: 0.969
[4]; first compound 0.3162 µM
  relative viability: 0.898
[4]; first compound 1 µM
  relative viability: 1.02
[5]; first compound 0.01 µM
  relative viability: 0.623
[5]; first compound 0.03162 µM
  relative viability: 0.626
[5]; first compound 0.1 µM
  relative viability: 0.563
[5]; first compound 0.3162 µM
  relative viability: 0.636
[5]; first compound 1 µM
  relative viability: 0.595
[6]; first compound 0.01 µM
  relative viability: 1.01
[6]; first compound 0.03162 µM
  relative viability: 1.01
[6]; first compound 0.1 µM
  relative viability: 0.986
[6]; first compound 0.3162 µM
  relative viability: 1.09
[6]; first compound 1 µM
  relative viability: 0.944
[7]; first compound 0.01 µM
  relative viability: 0.891
[7]; first compound 0.03162 µM
  relative viability: 0.961
[7]; first compound 0.1 µM
  relative viability: 1.04
[7]; first compound 0.3162 µM
  relative viability: 1.01
[7]; first compound 1 µM
  relative viability: 0.887
[8]; first compound 0.01 µM
  relative viability: 0.792
[8]; first compound 0.03162 µM
  relative viability: 0.929
[8]; first compound 0.1 µM
  relative viability: 0.97
[8]; first compound 0.3162 µM
  relative viability: 1.1
[8]; first compound 1 µM
  relative viability: 0.789
[9]; first compound 0.01 µM
  relative viability: 1.06
[9]; first compound 0.03162 µM
  relative viability: 0.931
[9]; first compound 0.1 µM
  relative viability: 1.28
[9]; first compound 0.3162 µM
  relative viability: 1.16
[9]; first compound 1 µM
  relative viability: 0.786
[10]; first compound 0.01 µM
  relative viability: 0.885
[10]; first compound 0.03162 µM
  relative viability: 1.04
[10]; first compound 0.1 µM
  relative viability: 0.994
[10]; first compound 0.3162 µM
  relative viability: 1.06
[10]; first compound 1 µM
  relative viability: 0.879
[11]; first compound 0.01 µM
  relative viability: 1.27
[11]; first compound 0.03162 µM
  relative viability: 1.08
[11]; first compound 0.1 µM
  relative viability: 1.2
[11]; first compound 0.3162 µM
  relative viability: 1.3
[11]; first compound 1 µM
  relative viability: 1.12
[12]; first compound 0.01 µM
  relative viability: 1.02
[12]; first compound 0.03162 µM
  relative viability: 0.63
[12]; first compound 0.1 µM
  relative viability: 0.792
[12]; first compound 0.3162 µM
  relative viability: 0.959
[12]; first compound 1 µM
  relative viability: 0.967

## O=c1cc(-c2cccc3c2Sc2ccccc2S3)oc(N2CCOCC2)c1 + C[C@]1(O)C[C@@H](c2nc(-c3ccc4ccc(-c5ccccc5)nc4c3)c3c(N)nccn32)C1 [Linsitinib] (partner 1 µM)
[1]; first compound 0.08 µM
  relative viability: 0.897
[1]; first compound 0.253 µM
  relative viability: 1.06
[1]; first compound 0.8 µM
  relative viability: 1.15
[1]; first compound 2.53 µM
  relative viability: 0.972
[1]; first compound 8 µM
  relative viability: 1.02
[2]; first compound 0.08 µM
  relative viability: 0.958
[2]; first compound 0.253 µM
  relative viability: 1.49
[2]; first compound 0.8 µM
  relative viability: 0.821
[2]; first compound 2.53 µM
  relative viability: 0.859
[2]; first compound 8 µM
  relative viability: 0.899
[3]; first compound 0.08 µM
  relative viability: 0.695
[3]; first compound 0.253 µM
  relative viability: 0.919
[3]; first compound 0.8 µM
  relative viability: 0.491
[3]; first compound 2.53 µM
  relative viability: 0.465
[3]; first compound 8 µM
  relative viability: 0.343
[4]; first compound 0.08 µM
  relative viability: 0.909
[4]; first compound 0.253 µM
  relative viability: 1.08
[4]; first compound 0.8 µM
  relative viability: 0.988
[4]; first compound 2.53 µM
  relative viability: 0.934
[4]; first compound 8 µM
  relative viability: 1.02
[5]; first compound 0.08 µM
  relative viability: 0.586
[5]; first compound 0.253 µM
  relative viability: 0.863
[5]; first compound 0.8 µM
  relative viability: 0.564
[5]; first compound 2.53 µM
  relative viability: 0.583
[5]; first compound 8 µM
  relative viability: 0.666
[6]; first compound 0.08 µM
  relative viability: 0.987
[6]; first compound 0.253 µM
  relative viability: 1
[6]; first compound 0.8 µM
  relative viability: 1.05
[6]; first compound 2.53 µM
  relative viability: 1.03
[6]; first compound 8 µM
  relative viability: 0.984
[7]; first compound 0.08 µM
  relative viability: 0.865
[7]; first compound 0.253 µM
  relative viability: 0.939
[7]; first compound 0.8 µM
  relative viability: 0.85
[7]; first compound 2.53 µM
  relative viability: 1.01
[7]; first compound 8 µM
  relative viability: 0.763
[8]; first compound 0.08 µM
  relative viability: 0.829
[8]; first compound 0.253 µM
  relative viability: 0.854
[8]; first compound 0.8 µM
  relative viability: 0.782
[8]; first compound 2.53 µM
  relative viability: 0.642
[8]; first compound 8 µM
  relative viability: 0.7
[9]; first compound 0.08 µM
  relative viability: 1.06
[9]; first compound 0.253 µM
  relative viability: 1.2
[9]; first compound 0.8 µM
  relative viability: 0.954
[9]; first compound 2.53 µM
  relative viability: 0.879
[9]; first compound 8 µM
  relative viability: 0.865
[10]; first compound 0.08 µM
  relative viability: 0.706
[10]; first compound 0.253 µM
  relative viability: 1.14
[10]; first compound 0.8 µM
  relative viability: 0.828
[10]; first compound 2.53 µM
  relative viability: 0.871
[10]; first compound 8 µM
  relative viability: 0.91
[11]; first compound 0.08 µM
  relative viability: 1.04
[11]; first compound 0.253 µM
  relative viability: 1.26
[11]; first compound 0.8 µM
  relative viability: 1.23
[11]; first compound 8 µM
  relative viability: 1.18
[12]; first compound 0.08 µM
  relative viability: 0.237
[12]; first compound 0.253 µM
  relative viability: 0.636
[12]; first compound 0.8 µM
  relative viability: 1.02
[12]; first compound 2.53 µM
  relative viability: 0.779
[12]; first compound 8 µM
  relative viability: 0.636
